Drawing on patent publication US20250163104A1, “MACROCYCLIC IMMUNOMODULATORS” (priority 2021, published 2025), this text covers IC50 for 15 compounds.

Where two headings read alike, the source gives them in different places. Where a SMILES comes first, the peptide text is derived from it. Bridges are numbered along the chain shown (N, C = ends). [ ]: non-standard residue; d: D form. The star is where a group is joined. ξ: configuration not given here. Bip(3'-COOH) = N[C@@H](Cc1ccc(-c2cccc(C(=O)O)c2)cc1)C(=O)O; Ala(morpholin-4-yl) = N[C@@H](CN1CCOCC1)C(=O)O; Phe(4-COOH) = N[C@@H](Cc1ccc(C(=O)O)cc1)C(=O)O; Bip = N[C@@H](Cc1ccc(-c2ccccc2)cc1)C(=O)O; Phe(3-Me) = Cc1cccc(C[C@H](N)C(=O)O)c1; Phe(2-F) = N[C@@H](Cc1ccccc1F)C(=O)O; 3Pal = N[C@@H](Cc1cccnc1)C(=O)O; 4Pal = N[C@@H](Cc1ccncc1)C(=O)O; Cha = N[C@@H](CC1CCCCC1)C(=O)O; Cit = NC(=O)NCCC[C@H](N)C(=O)O; Thr(3ξ) = CC(O)[C@H](N)C(=O)O; Carboxymethyl = O=C(O)C*; Nle = CCCC[C@H](N)C(=O)O; Orn = NCCC[C@H](N)C(=O)O; Dab = NCC[C@H](N)C(=O)O; Dap = NC[C@H](N)C(=O)O

The test addresses T1, human PD-1 / PD-L1-Ig binding on Jurkat cell line over-expressing human PD-1 (Jurkat-PD-1) (Homo sapiens, UniProt Q15116).
T1 construct: expressed in transfected cells; host or cells: Jurkat
Kind of test: Jurkat-PD-1 Cell Binding High-Content Screening Assay (CBA). The test is classed as cell-based. As to conditions: PE-labeled PD-L1-Ig 20 nM final. In outline: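 Compounds were preincubated with Jurkat-hPD-1 cells in DMEM plus 10% fetal calf serum for 2 h at 37° C. Phycoerythrin-labeled PD-L1-Ig (20 nM final) was then added for 1 hour. Cells were fixed in 4% paraformaldehyde with Hoechst 33342, and bound fluorescence was quantified by high-content imaging.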

Setting [1] is: Jurkat-PD-1 cells, read-out: Jurkat HPD1_PDL1 IC50.

T1 sequence (Q15116 25-288): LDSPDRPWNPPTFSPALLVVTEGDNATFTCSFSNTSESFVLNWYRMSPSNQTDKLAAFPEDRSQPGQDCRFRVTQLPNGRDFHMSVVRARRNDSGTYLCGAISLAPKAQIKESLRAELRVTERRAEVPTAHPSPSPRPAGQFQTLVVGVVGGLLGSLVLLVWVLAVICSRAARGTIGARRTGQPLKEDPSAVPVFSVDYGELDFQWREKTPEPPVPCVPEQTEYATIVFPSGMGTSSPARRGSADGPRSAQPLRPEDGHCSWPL

For the compound `CC[C@H](C)[C@@H]1NC(=O)[C@H](Cc2ccc(-c3ccccc3)cc2)NC(=O)[C@H](C(C)C)NC(=O)[C@H](Cc2c[nH]c3ccccc23)NC(=O)[C@H](CC(=O)O)NC(=O)[C@H](Cc2ccc(O)cc2)NC(=O)[C@H](CC(N)=O)NC(=O)CSC[C@@H](C(=O)N[C@@H](C)C(N)=O)NC(=O)[C@H](CO)NC(=O)[C@H](C(C)C)NC(=O)[C@H](CC(C)C)NC(=O)[C@H](CCN)NC(=O)[C@@H](CC(C)C)NC(=O)[C@H](CCCN)NC1=O` [Compound 1118] ({CH2CO}-NYDWV[Bip]I[Orn][dL][Dab]LVSCA-NH2; thioether N-14), the IC50 under setting [1] was determined as 23.1 nM.

In the case of `CC[C@H](C)[C@@H]1NC(=O)[C@H](Cc2c[nH]c3ccccc23)NC(=O)[C@H](CC(=O)O)NC(=O)[C@H](Cc2ccc(OCC(=O)O)cc2)NC(=O)[C@H](CN)NC(=O)CSC[C@@H](C(=O)N[C@@H](C)C(N)=O)NC(=O)[C@H]([C@@H](C)O)NC(=O)[C@H](C(C)C)NC(=O)[C@H](CC2CCCCC2)NC(=O)[C@H](CCN)NC(=O)[C@@H](CC(C)C)NC(=O)[C@H](CCCN)NC(=O)[C@H](C(C)C)NC(=O)[C@H](Cc2ccc(-c3ccccc3)cc2)NC1=O` [Compound 1733] ({CH2CO}-[Dap]Y(Carboxymethyl)DWI[Bip]V[Orn][dL][Dab][Cha]VTCA-NH2; thioether N-14), under setting [1], the IC50 was found to be 16.7 nM.

In the case of `Cc1cccc(C[C@@H]2NC(=O)[C@H](CC(N)=O)NC(=O)[C@H](Cc3ccc(C(=O)O)cc3)NC(=O)[C@H](CN3CCOCC3)NC(=O)CSC[C@@H](C(=O)N[C@@H](CCN)C(N)=O)NC(=O)[C@H](CCCN)NC(=O)[C@H](C(C)C)NC(=O)[C@H](CC3CCCCC3)NC(=O)[C@H](CCN)NC(=O)[C@@H](CC(C)C)NC(=O)[C@H](CCCN)NC(=O)[C@H](CCCN)NC(=O)[C@H](Cc3ccc(-c4ccccc4)cc3)NC(=O)[C@H](Cc3ccc(C(=O)O)cc3)NC2=O)c1` [Example 2727] ({CH2CO}-[Ala(morpholin-4-yl)][Phe(4-COOH)]N[Phe(3-Me)][Phe(4-COOH)][Bip][Orn][Orn][dL][Dab][Cha]V[Orn]C[Dab]-NH2; thioether N-14), the IC50 under setting [1] turned out to be 348 nM. Same read-out and setting: with `CC(C)C[C@H]1NC(=O)[C@H](CCCN)NC(=O)[C@H](CCC(=O)O)NC(=O)[C@H](Cc2ccc(-c3ccccc3)cc2)NC(=O)[C@H](C(C)C)NC(=O)[C@H](Cc2ccccc2F)NC(=O)[C@H](CC(=O)O)NC(=O)[C@H](Cc2ccncc2)NC(=O)[C@H](CN)NC(=O)CSC[C@@H](C(=O)N[C@@H](C)C(N)=O)NC(=O)[C@H]([C@@H](C)O)NC(=O)[C@H](C(C)C)NC(=O)[C@H](CC2CCCCC2)NC(=O)[C@H](CCN)NC1=O` [Compound 2209] ({CH2CO}-[Dap][4Pal]D[Phe(2-F)]V[Bip]E[Orn][dL][Dab][Cha]VTCA-NH2; thioether N-14) the figure was 29.7 nM. On to `CC(C)C[C@H]1NC(=O)[C@H](CCCN)NC(=O)[C@H](CCC(=O)O)NC(=O)[C@H](Cc2ccc(-c3ccccc3)cc2)NC(=O)[C@H](C(C)C)NC(=O)[C@H](Cc2c[nH]c3ccccc23)NC(=O)[C@H](CC(=O)O)NC(=O)[C@H](Cc2ccc(OCC(=O)O)cc2)NC(=O)[C@H](CN)NC(=O)CSC[C@@H](C(=O)N[C@@H](C)C(N)=O)NC(=O)[C@H]([C@@H](C)O)NC(=O)[C@H](C(C)C)NC(=O)[C@H](Cc2cc(F)c(F)cc2F)NC(=O)[C@H](CCN)NC1=O` [Compound 1477], for which, under setting [1], the IC50 was 144 nM. Still for that read-out and setting: with `Cc1cccc(C[C@@H]2NC(=O)[C@H](CC(=O)O)NC(=O)[C@H](Cc3ccc(OCC(=O)O)cc3)NC(=O)[C@H](Cc3cccnc3)NC(=O)CSC[C@@H](C(N)=O)NC(=O)[C@H]([C@@H](C)O)NC(=O)[C@H](C(C)C)NC(=O)[C@H](CC(C)C)NC(=O)[C@H](CCN)NC(=O)[C@@H](CC(C)C)NC(=O)[C@H](CCCN)NC(=O)[C@H](C(C)C)NC(=O)[C@H](Cc3ccc(-c4ccccc4)cc3)NC(=O)[C@H](C(C)C)NC2=O)c1` [Compound 1553] ({CH2CO}-[3Pal]Y(Carboxymethyl)D[Phe(3-Me)]V[Bip]V[Orn][dL][Dab]LVTC-NH2; thioether N-14) the figure was 26.9 nM; with `CCCC[C@@H]1NC(=O)[C@H](CCN)NC(=O)[C@@H](CC(C)C)NC(=O)[C@H](CCCN)NC(=O)[C@H](CCCNC(N)=O)NC(=O)[C@H](Cc2ccc(-c3ccccc3)cc2)NC(=O)[C@H](C(C)C)NC(=O)[C@H](Cc2cccc(C)c2)NC(=O)[C@H](CC(=O)O)NC(=O)[C@H](Cc2ccc(OCC(=O)O)cc2)NC(=O)[C@H](CN)NC(=O)CSC[C@@H](C(=O)N[C@@H](C)C(N)=O)NC(=O)[C@H]([C@@H](C)O)NC(=O)[C@H](C(C)C)NC1=O` [Compound 1207] ({CH2CO}-[Dap]Y(Carboxymethyl)D[Phe(3-Me)]V[Bip][Cit][Orn][dL][Dab][Nle]VTCA-NH2; thioether N-14), 6.8 nM. `CC(C)C[C@H]1NC(=O)[C@H](CCCN)NC(=O)[C@H](CCC(=O)O)NC(=O)[C@H](Cc2ccc(-c3ccccc3)cc2)NC(=O)[C@H](C(C)C)NC(=O)[C@H](Cc2c[nH]c3ccccc23)NC(=O)[C@H](CC(=O)O)NC(=O)[C@H](Cc2ccc(-c3cccc(C(=O)O)c3)cc2)NC(=O)[C@H](CC(N)=O)NC(=O)CSC[C@@H](C(=O)N[C@@H](C)C(N)=O)NC(=O)[C@H]([C@@H](C)O)NC(=O)[C@H](C(C)C)NC(=O)[C@H](CC2CCCCC2)NC(=O)[C@H](CCN)NC1=O` [Compound 2165] ({CH2CO}-N[Bip(3'-COOH)]DWV[Bip]E[Orn][dL][Dab][Cha]VTCA-NH2; thioether N-14): under setting [1], the IC50 is 24.1 nM. The same measure, in the same setting: with `Cc1cccc(C[C@@H]2NC(=O)[C@H](CC(=O)O)NC(=O)[C@H](Cc3ccc(OCC(=O)O)cc3)NC(=O)[C@H](Cc3ccncc3)NC(=O)CSC[C@@H](C(=O)N[C@@H](C)C(N)=O)NC(=O)[C@H]([C@@H](C)O)NC(=O)[C@H](C(C)C)NC(=O)[C@H](CC3CCCCC3)NC(=O)[C@H](Cc3cnc[nH]3)NC(=O)[C@@H](CC(C)C)NC(=O)[C@H](CCCN)NC(=O)[C@H](C(C)C)NC(=O)[C@H](Cc3ccc(-c4ccccc4)cc3)NC(=O)[C@H](C(C)C)NC2=O)c1` [Compound 1588] the figure was 25.4 nM; with `CC(C)C[C@H]1NC(=O)[C@H](CCCN)NC(=O)[C@H](CCC(=O)O)NC(=O)[C@H](Cc2ccc(-c3ccccc3)cc2)NC(=O)[C@H](C(C)C)NC(=O)[C@H](Cc2c[nH]c3ccccc23)NC(=O)[C@H](CC(=O)O)NC(=O)[C@H](Cc2ccc(C(=O)O)cc2)NC(=O)[C@H](Cc2ccc(OCC(=O)O)cc2)NC(=O)CSC[C@@H](C(=O)N[C@@H](C)C(N)=O)NC(=O)[C@H]([C@@H](C)O)NC(=O)[C@H](C(C)C)NC(=O)[C@H](CC2CCCCC2)NC(=O)[C@H](CCN)NC1=O` [Compound 1427], 9.7 nM.

As for `CC(C)C[C@H]1NC(=O)[C@H](CCCN)NC(=O)[C@H](CCC(=O)O)NC(=O)[C@H](Cc2ccc(-c3ccccc3)cc2)NC(=O)[C@H](C(C)C)NC(=O)[C@H](Cc2c[nH]c3ccccc23)NC(=O)[C@H](CO)NC(=O)[C@H](Cc2ccc(OCC(=O)O)cc2)NC(=O)[C@H](CN)NC(=O)CSC[C@@H](C(=O)N[C@@H](C)C(N)=O)NC(=O)[C@H]([C@@H](C)O)NC(=O)[C@H](C(C)C)NC(=O)[C@H](CC2CCCCC2)NC(=O)[C@H](CCN)NC1=O` [Compound 1498] ({CH2CO}-[Dap]Y(Carboxymethyl)SWV[Bip]E[Orn][dL][Dab][Cha]VTCA-NH2; thioether N-14), the IC50 under setting [1] amounted to 366 nM. Turning to `CC(C)C[C@@H]1NC(=O)[C@H](Cc2c[nH]c3ccccc23)NC(=O)[C@H](CC(=O)O)NC(=O)[C@H](Cc2ccc(OCC(=O)O)cc2)NC(=O)[C@H](CN)NC(=O)CSC[C@@H](C(=O)NCC(N)=O)NC(=O)[C@H](CO)NC(=O)[C@H](C(C)C)NC(=O)[C@H](CC(C)C)NC(=O)[C@H](CC(N)=O)NC(=O)[C@@H](CC(C)C)NC(=O)[C@H](CN)NC(=O)[C@H](C(C)C)NC(=O)[C@H](Cc2ccc(-c3ccccc3)cc2)NC1=O` [Compound 1276] ({CH2CO}-[Dap]Y(Carboxymethyl)DWL[Bip]V[Dap][dL]NLVSCG-NH2; thioether N-14), the IC50 (Jurkat HPD1_PDL1 IC50, Jurkat-PD-1 cells) was determined as 8.1 nM. With `CCCC[C@@H]1NC(=O)[C@H](CCCNC(=N)N)NC(=O)[C@@H](CC(C)C)NC(=O)[C@H](CCCN)NC(=O)[C@H](CCCNC(N)=O)NC(=O)[C@H](Cc2ccc(-c3ccccc3)cc2)NC(=O)[C@H](C(C)C)NC(=O)[C@H](Cc2c[nH]c3ccccc23)NC(=O)[C@H](CC(=O)O)NC(=O)[C@H](Cc2ccc(O)cc2)NC(=O)[C@H](CN)NC(=O)CSC[C@@H](C(=O)N[C@@H](C)C(N)=O)NC(=O)[C@H]([C@@H](C)O)NC(=O)[C@H](C(C)C)NC1=O` [Compound 1175] ({CH2CO}-[Dap]YDWV[Bip][Cit][Orn][dL]R[Nle]VTCA-NH2; thioether N-14), the IC50 under setting [1] is 82 nM. Same read-out and setting: the same measure for `CC(C)C[C@H]1NC(=O)[C@H](CCCN)NC(=O)[C@H](CCCNC(N)=O)NC(=O)[C@H](Cc2ccc(-c3ccccc3)cc2)NC(=O)[C@H](C(C)C)NC(=O)[C@H](Cc2c[nH]c3ccccc23)NC(=O)[C@H](CC(=O)O)NC(=O)[C@H](Cc2ccc(OCC(=O)O)cc2)NC(=O)[C@H](CCN)NC(=O)CSC[C@@H](C(=O)N[C@@H](CCN)C(N)=O)NC(=O)[C@H](C(C)O)NC(=O)[C@H](C(C)C)NC(=O)[C@H](CC2CCCCC2)NC(=O)[C@H](CCN)NC1=O` (stereo partly drawn) [Compound 2638] ({CH2CO}-[Dab]Y(Carboxymethyl)DWV[Bip][Cit][Orn][dL][Dab][Cha]V[Thr(3ξ)]C[Dab]-NH2; thioether N-14): 16.1 nM; for `CC(C)C[C@H]1NC(=O)[C@H](CCCN)NC(=O)[C@H](CCC(=O)O)NC(=O)[C@H](Cc2ccc(-c3ccccc3)cc2)NC(=O)[C@H](C(C)C)NC(=O)[C@H](Cc2c[nH]c3ccccc23)NC(=O)[C@H](CC(=O)O)NC(=O)[C@H](Cc2cccnc2)NC(=O)[C@H](Cc2ccc(OCC(=O)O)cc2)NC(=O)CSC[C@@H](C(=O)N[C@@H](C)C(N)=O)NC(=O)[C@H]([C@@H](C)O)NC(=O)[C@H](C(C)C)NC(=O)[C@H](CC2CCCCC2)NC(=O)[C@H](CCN)NC1=O` [Compound 2173]: 16.8 nM.

In general, IC50 refers to the concentration that inhibits the measured activity by half.
